# PubChem BioAssay (NCI)
#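 Step 1: Grow cells in 96-well plates. Step 2: Expose to compound for 48 hours at 5 concentrations. Step 3: Interpolate endpoints linearly; if unreached, use highest concentration. GI50 marks 50% less growth. The concentration for full growth arrest is given as TGI.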
# Assays:
# Test in all cases: growth of human tumour cells (NCI), 48 h
# [1] = tested on: SW-620 colon
# [2] = tested on: NCI-H460 lung
# [3] = tested on: SN12C renal
# [4] = tested on: SNB-19 CNS
# [5] = tested on: K-562 leukemia
# [6] = tested on: DU-145 prostate
# [7] = tested on: SK-MEL-5 melanoma
# [8] = tested on: SK-MEL-28 melanoma
Structure (SMILES),GI50 [1],TGI [1],GI50 [2],TGI [2],GI50 [3],TGI [3],GI50 [4],TGI [4],GI50 [5],TGI [5],GI50 [6],TGI [6],GI50 [7],TGI [7],GI50 [8],TGI [8]
C[C@@H]1CCC2[C@@H](C)[C@@H](OCC(CO[C@H]3OC4O[C@@]5(C)CC[C@H]6[C@H](C)CCC([C@H]3C)[C@@]46OO5)OC(=O)CCC(=O)O)OC3O[C@@]4(C)CC[C@@H]1[C@]32OO4 (stereo partly specified),0.0285 µM,18.1 µM,< 0.0183 µM,15.8 µM,0.374 µM,23.4 µM,10.1 µM,23.1 µM,< 0.0479 µM,> 42.2 µM,6.4 µM,27.3 µM,0.147 µM,17.5 µM,11.4 µM,> 47.4 µM
C=C1NC(=O)C(C(C)CC)NC(=O)C2CSCC(NC(=O)CCC(=O)O)C(=O)NC(Cc3ccccc3)C(=O)NC(C)C(=O)NC(CC(C)CC)C(=O)NC(C(=O)NC(Cc3ccccc3)C(=O)N3CCCC3C(=O)N2)C(C)OC(=O)C(CO)NC(=O)C(C(O)COC)N(C)C(=O)C(C(C)C)NC(=O)C(CC(C)CC)NC1=O (stereo unspecified),0.0175 µM,> 6 µM,0.00439 µM,> 6 µM,0.0707 µM,> 6 µM,0.0255 µM,> 6 µM,0.0124 µM,> 6 µM,0.0238 µM,> 6 µM,0.00637 µM,0.427 µM,> 6 µM,> 6 µM
Cc1cc(/C=C/c2ccc3cc(N(C)C)ccc3[n+]2C)c(C)n1-c1ccccc1,0.174 µM,7.79 µM,0.146 µM,0.56 µM,0.159 µM,0.636 µM,0.161 µM,5.97 µM,,,0.175 µM,0.846 µM,0.0835 µM,0.226 µM,0.568 µM,1.53 µM
COc1ncnc(NS(=O)(=O)c2ccc(N=C3C(=O)N(CN4CCN(c5c(F)cc6c(=O)c(C(=O)O)cn(C7CC7)c6c5OC)CC4C)c4ccc(Cl)cc43)cc2)c1OC (stereo unspecified),10.7 µM,> 50 µM,11 µM,> 50 µM,16.9 µM,> 50 µM,> 50 µM,> 50 µM,20.5 µM,> 50 µM,21 µM,> 50 µM,8.63 µM,16.5 µM,26.1 µM,> 50 µM
N=Nc1c(OC(=O)Nc2cccc(Cl)c2)[nH]c2ccccc12,,24.6 µM,,20 µM,,14.8 µM,,18.5 µM,,> 52.8 µM,,20.3 µM,,24 µM,,28 µM
CCN1CCN(c2nc(C)cc(N(CCNc3ccnc4cc(Cl)ccc34)Cc3ccc4c(c3)OCO4)n2)CC1,1.62 µM,3.55 µM,1.94 µM,4.7 µM,2.58 µM,8.27 µM,3 µM,10.2 µM,0.913 µM,2.76 µM,,,1.74 µM,3.17 µM,1.79 µM,3.42 µM
CCN(CC)c1ccc(-c2cc(-c3cc(OC)c(OC)c(OC)c3)nc(N3CCOCC3)c2C#N)cc1,3.3 µM,> 100 µM,0.412 µM,5.73 µM,0.805 µM,> 100 µM,12.8 µM,> 100 µM,1 µM,> 19.9 µM,2.18 µM,> 100 µM,0.219 µM,0.845 µM,4.78 µM,> 63.5 µM
CC(=O)[C@@]12O[C@@H]1CC1C3CCC4=CC(O)CCC4(C)C3CCC12C (stereo partly specified),39.5 µM,> 100 µM,70.8 µM,> 100 µM,81 µM,> 100 µM,38.8 µM,> 100 µM,55.5 µM,> 100 µM,15 µM,31.8 µM,> 100 µM,> 100 µM,69.4 µM,> 100 µM
O=c1c2sccc2n(CC2COc3ccccc3O2)c(=O)n1O (stereo unspecified),3.76 µM,> 100 µM,4.66 µM,41.8 µM,11.1 µM,> 100 µM,12.8 µM,> 100 µM,4.1 µM,> 100 µM,19.8 µM,> 100 µM,17.1 µM,61.1 µM,14.5 µM,> 100 µM
COc1cc(C2c3cc4c(cc3OC(C)(O)C2C)OCO4)cc(OC)c1OC (stereo unspecified),,> 100 µM,,> 100 µM,,> 100 µM,,> 100 µM,,11.9 µM,,> 100 µM,,2.36 µM,,
OCC#Cc1ccccc1C#Cc1ccccc1,20 µM,43.6 µM,18.2 µM,35.2 µM,8.79 µM,21.3 µM,20.6 µM,38.7 µM,26 µM,> 100 µM,14.9 µM,28.2 µM,15.9 µM,31.8 µM,19.2 µM,40.4 µM
O=C1OC(O)[C@@H]2[C@H]1[C@H]1CC[C@@H]2O1 (stereo partly specified),52 µM,> 100 µM,> 100 µM,> 100 µM,> 92.3 µM,> 100 µM,> 100 µM,> 100 µM,> 100 µM,> 100 µM,> 87.3 µM,> 100 µM,68.2 µM,> 100 µM,> 58.2 µM,> 94 µM
Nc1ncnc2n[nH]c(Nc3ccc(F)cc3)c12,18.2 µM,> 100 µM,16.3 µM,> 100 µM,35.6 µM,> 100 µM,61.7 µM,> 100 µM,15.6 µM,> 100 µM,9.33 µM,42.1 µM,19.6 µM,> 100 µM,24.1 µM,88.4 µM
Fc1cc2[nH]ncc2c2c3c(c(-c4cn[nH]c4)nc12)CCCC3,0.451 µM,> 26.6 µM,0.845 µM,4.69 µM,1.06 µM,7.04 µM,1.65 µM,17.1 µM,1.55 µM,> 100 µM,1.09 µM,15.5 µM,0.552 µM,2.12 µM,1.19 µM,3.88 µM
CN(C(=O)c1ccc(C(F)(F)F)cc1)c1ccc(Oc2ccc3c(c2)cc(C(=O)N2CCN(Cc4ccc(OC(F)F)cc4)CC2)n3C)nc1,98.2 µM,> 100 µM,3.25 µM,> 100 µM,> 100 µM,> 100 µM,34.9 µM,> 100 µM,< 0.01 µM,> 100 µM,> 100 µM,> 100 µM,< 0.0213 µM,4.82 µM,63.2 µM,> 100 µM
Cn1cnc([N+](=O)[O-])c1S(=O)(=O)Oc1cccc2ccccc12,1.36 µM,2.89 µM,14.7 µM,36 µM,5.71 µM,20.5 µM,29 µM,> 100 µM,1.6 µM,8.63 µM,3.14 µM,8.03 µM,13.7 µM,28.8 µM,4.68 µM,14.5 µM
COC1=CC(=O)C(C2CC(=O)c3c(O)cc(O)cc3O2)=CC1=O (stereo unspecified),,44.4 µM,,51.8 µM,,37.4 µM,,68.2 µM,,40.8 µM,,35.3 µM,,31.7 µM,,31.4 µM

Structure (SMILES),GI50 [1],TGI [1],GI50 [2],TGI [2],GI50 [3],TGI [3],GI50 [4],TGI [4],GI50 [5],TGI [5],GI50 [6],TGI [6],GI50 [7],TGI [7],GI50 [8],TGI [8]
CC1(C)C2CCC(=O)C1CC2 (stereo unspecified),,> 100 µM,,> 100 µM,,> 100 µM,,> 100 µM,,> 100 µM,,> 100 µM,,> 100 µM,,> 100 µM
COc1c(Cl)c(=O)oc2ccc(Cl)cc12,,> 100 µM,,> 100 µM,,> 100 µM,,> 100 µM,,> 100 µM,,> 100 µM,,> 100 µM,,> 100 µM
ClCc1cccc(Cn2cnc3ncnc(Cl)c32)c1,15.2 µM,32.2 µM,2.09 µM,4.45 µM,7.02 µM,20.2 µM,,,16.6 µM,48.1 µM,15.2 µM,31 µM,4.65 µM,18.2 µM,1.81 µM,3.52 µM
OC(c1nc2ccccc2[nH]1)C(O)C(O)C(O)c1nc2ccccc2[nH]1 (stereo unspecified),,> 100 µM,,> 100 µM,,> 100 µM,,> 100 µM,,> 100 µM,,> 100 µM,,> 100 µM,,> 100 µM
COc1cc(NCc2ccc3oc(=O)c(-c4ccccc4)nc3c2)cc(OC)c1OC,,> 10 µM,,> 10 µM,,> 10 µM,,> 10 µM,,> 10 µM,,> 10 µM,,> 10 µM,,> 10 µM
Cc1cc2c(cc1Cl)SC(N(N(C)C)S(=O)(=O)c1ccc(Cl)cc1)=NS2(=O)=O,32.5 µM,> 100 µM,16.9 µM,45.5 µM,24.3 µM,72 µM,25.2 µM,> 100 µM,31.8 µM,> 100 µM,27.8 µM,99.4 µM,15.4 µM,28.7 µM,29.1 µM,> 100 µM
NS(=O)(=O)c1cc(Br)c(N=Nc2ccc(O)c3ncccc23)c(Br)c1,,> 100 µM,,> 100 µM,,> 100 µM,,> 100 µM,,> 100 µM,,> 100 µM,,> 100 µM,,> 100 µM
O=C(/C=C/c1ccc(Cl)cc1)c1ccc(Nc2ccnc3cc(Cl)ccc23)cc1,6.05 µM,> 67.5 µM,> 57.6 µM,> 100 µM,> 100 µM,> 100 µM,> 57.6 µM,> 100 µM,4.98 µM,> 100 µM,27.6 µM,> 100 µM,,> 53.8 µM,31.9 µM,> 100 µM
O=C(CSc1ccc(Cl)cc1)Nc1ccc(-c2nc3ccccc3s2)c(Cl)c1,3.67 µM,83.4 µM,3.41 µM,16 µM,3.57 µM,72.8 µM,4.31 µM,74.2 µM,4.14 µM,> 100 µM,,,10.4 µM,23 µM,6.31 µM,46.4 µM
Cc1c2c(nn1-c1ccc(S(=O)(=O)/N=C3\SCCC(=O)N3c3ccccc3)cc1)-c1ccccc1CC2,,,> 100 µM,> 100 µM,87.5 µM,> 100 µM,> 100 µM,> 100 µM,> 100 µM,> 100 µM,> 100 µM,> 100 µM,95.9 µM,> 100 µM,> 100 µM,> 100 µM
COc1cc2c3c(n(C)c(=O)c2cc1OC)-c1cc2c(cc1/C3=C\CCN)OCO2,< 0.01 µM,1.62 µM,0.0147 µM,1.81 µM,0.583 µM,17.6 µM,0.394 µM,16.3 µM,0.0397 µM,1.5 µM,0.362 µM,11.4 µM,,,8.76 µM,33.5 µM
Cc1ccc(S(=O)(=O)Nc2ccccc2C(=O)c2ccc(C)c(C)c2)cc1,,> 100 µM,,> 100 µM,,> 100 µM,,> 100 µM,,,,> 100 µM,,> 100 µM,,> 100 µM
Cc1cc(-c2ccc3nc(C4CCOCC4)n(CCOC(F)(F)F)c3c2)cn(C)c1=O,1.79 µM,33.3 µM,1.06 µM,,1.22 µM,31.1 µM,,,0.507 µM,,,,,1.27 µM,,
Cc1cc(O)c(/C=N/C(=S)NCc2ccccc2)c(=O)o1,,> 100 µM,,> 100 µM,,> 100 µM,,> 100 µM,,,,> 100 µM,,> 100 µM,,> 100 µM
COc1cc(/C=C2\CN(S(=O)(=O)c3ccccc3)C/C(=C\c3cc(CN4CCCC4)c(O)c(OC)c3)C2=O)cc(CN2CCCC2)c1O,,,,,1.08 µM,3.22 µM,1.49 µM,3.08 µM,,,0.542 µM,1.91 µM,,,1.88 µM,3.56 µM
Brc1ccccc1C1SCc2nc3ccccc3n21 (stereo unspecified),,> 100 µM,,44.5 µM,,25.8 µM,,,,> 100 µM,,,,18.7 µM,,
OCCCCCNCc1cc2cc3c(cc2c2cc(OCc4ccccc4)ccc12)OCO3,1.39 µM,2.69 µM,,,3.4 µM,13.4 µM,,,1.68 µM,4.11 µM,1.54 µM,2.88 µM,1.48 µM,2.8 µM,1.82 µM,3.23 µM
